Measurements as given in ChEMBL document CHEMBL3585307, “Cyclic Steroid Glycosides from the Starfish Echinaster luzonicus: Structures and Immunomodulatory Activities” (J Nat Prod, 2015).
The source made the active and inactive calls. The rule behind the calls is not given here.

What was measured:
[1] = test system: RAW264.7; assay: Cytotoxicity against mouse RAW264.7 cells assessed as cell viability at 0.001 to 50 uM after 48 hrs by MTT assay; format: cell-based; conditions: raw264.7, 48 h
[2] = test system: RAW264.7; assay: Stimulation of lysosomal activity in mouse RAW264.7 cells after 24 hrs by acridine orange based/immunomodulatory activity assay; format: functional, cell-based
[3] = test system: RAW264.7; assay: Stimulation of lysosomal activity in mouse RAW264.7 cells at 10 uM after 24 hrs by acridine orange based/immunomodulatory activity assay; format: functional, cell-based
[4] = test system: RAW264.7; assay: Stimulation of lysosomal activity in mouse RAW264.7 cells at 0.001 to 1 uM after 24 hrs by acridine orange based/immunomodulatory activity assay; format: functional, cell-based
[5] = test system: RAW264.7; assay: Stimulation of lysosomal activity in mouse RAW264.7 cells at 0.1 uM after 24 hrs by acridine orange based/immunomodulatory activity assay; format: functional
[6] = test system: RAW264.7; assay: Induction of reactive oxygen species generation in mouse RAW264.7 cells at 0.01 to 10 uM after 24 hrs by DCF-DA dye-based/immunomodulatory activity assay; format: functional, cell-based
[7] = test system: RAW264.7; assay: Induction of reactive oxygen species generation in mouse RAW264.7 cells at 0.01 uM after 24 hrs by DCF-DA dye-based/immunomodulatory activity assay relative to control; format: functional
[8] = test system: RAW264.7; assay: Induction of NO production in mouse RAW264.7 cells after 24 hrs by FA-OMe fluorescent probe based/immunomodulatory activity assay; format: functional, cell-based
[9] = test system: RAW264.7; assay: Induction of NO production in mouse RAW264.7 cells at 0.01 uM after 24 hrs by FA-OMe fluorescent probe based/immunomodulatory activity assay; format: functional
[10] = test system: RAW264.7; assay: Induction of NO production in mouse RAW264.7 cells at 0.1 uM after 24 hrs by FA-OMe fluorescent probe based/immunomodulatory activity assay; format: functional
[11] = test system: RAW264.7; assay: Stimulation of lysosomal activity in mouse RAW264.7 cells at 0.1 uM after 24 hrs by acridine orange based/immunomodulatory activity assay relative to 1 ug/ml LPS stimulation; format: functional, cell-based

SMILES | Activity [1] | Activity [2] | Activity [3] | Activity [4] | Activity [5] | Activity [6] | fold change (FC) [7] | Activity [8] | Activity [9] | Activity [10] | Activity [11]
CC(C)CC(=O)C[C@@H](C)[C@H]1CC[C@H]2C3=C[C@H]4OC[C@H]5O[C@@H](O[C@H]6[C@@H](OC[C@H](O)[C@@H]6O)O[C@H]6[C@H](O[C@H]7CC[C@@](C)([C@@H]4C7)[C@H]3CC[C@]12C)O[C@H](C(=O)O)[C@@H](O)[C@@H]6O)[C@H](O)[C@@H](O)[C@H]5O | Non-toxic | Dose-dependent effect | inactive | Active | 50% | Active | 2 | Dose-dependent effect | 15% | 15% | Active
CC(C)CC(=O)C[C@@H](C)[C@H]1CC[C@H]2C3=C[C@H]4OC[C@H]5O[C@@H](O[C@H]6[C@@H](OC[C@H](O)[C@@H]6O)O[C@H]6[C@H](O[C@H]7CC[C@@](C)([C@@H]4C7)[C@H]3CC[C@]12C)O[C@H](C(=O)O)[C@@H](O)[C@@H]6O)[C@H](O)[C@@H](O)[C@@H]5O | Non-toxic | – | – | – | – | inactive | – | inactive | – | – | –
